From ChEMBL document CHEMBL1201862, “PubChem BioAssay data set” (2004)
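Interpolation was linear, between the two tested concentrations surrounding the appropriate level; five concentrations were tested over 48 hours in 96-well plates. Abbreviation: GI50, concentration required for 50% inhibition of growth.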 Active and inactive are the calls of the source. Cut-off read from the data, not from the text of the source: active = GI50 up to about 1.1 µM and inactive = higher.

Experiments:
Experiment in all cases: NCI tumour cell line growth inhibition, 48 h
KM12 = tested on: KM12
SF-268 = tested on: SF-268
SK-MEL-5 = tested on: SK-MEL-5
SF-295 = tested on: SF-295
LOX IMVI = tested on: LOX IMVI
BT-549 = tested on: BT-549
RXF 393 = tested on: RXF 393
OVCAR-8 = tested on: OVCAR-8
HCC 2998 = tested on: HCC 2998
786-0 = tested on: 786-0
HCT-116 = tested on: HCT-116
HCT-15 = tested on: HCT-15
HT-29 = tested on: HT-29
MDA-MB-435 = tested on: MDA-MB-435
SK-OV-3 = tested on: SK-OV-3
DU-145 = tested on: DU-145
MOLT-4 = tested on: MOLT-4
NCI/ADR-RES = tested on: NCI/ADR-RES
SK-MEL-2 = tested on: SK-MEL-2

SMILES	GI50 (KM12)	GI50 (SF-268)	GI50 (SK-MEL-5)	GI50 (SF-295)	GI50 (LOX IMVI)	GI50 (BT-549)	GI50 (RXF 393)	GI50 (OVCAR-8)	GI50 (HCC 2998)	GI50 (786-0)	GI50 (HCT-116)	GI50 (HCT-15) [µM]	GI50 (HT-29)	GI50 (MDA-MB-435)	GI50 (SK-OV-3)	GI50 (DU-145)	GI50 (MOLT-4)	GI50 (NCI/ADR-RES)	GI50 (SK-MEL-2)
C=C(C)C12OC3(c4ccccc4)OC1C1C4OC4(CO)C(O)C4(O)C(=O)C(C)=CC4C1(O3)C(C)C2OC(=O)/C=C/C=C/c1ccccc1 (configuration not stated)	0.156 µM (active)	0.247 µM (active)	0.0716 µM (active)	< 0.0005 µM (active)	0.0968 µM (active)	0.203 µM (active)	0.207 µM (active)	0.357 µM (active)	< 0.0005 µM (active)	0.101 µM (active)	0.228 µM (active)	0.258	0.0836 µM (active)	< 0.0005 µM (active)	1.15 µM (inactive)	0.215 µM (active)	0.113 µM (active)	0.344 µM (active)	0.337 µM (active)
O=c1ccc(=O)n(-c2ccccc2)[nH]1	> 100 µM (inactive)	> 100 µM (inactive)	> 100 µM (inactive)	> 100 µM (inactive)	> 100 µM (inactive)	> 100 µM (inactive)	> 100 µM (inactive)	> 100 µM (inactive)	> 100 µM (inactive)	> 100 µM (inactive)	> 100 µM (inactive)	> 100	> 100 µM (inactive)	> 100 µM (inactive)	> 100 µM (inactive)	> 100 µM (inactive)	> 100 µM (inactive)	> 100 µM (inactive)	> 100 µM (inactive)
COCN1C(=O)[C@@H]2C[C@@H](O)CN2C(=O)c2ccccc21	> 100 µM (inactive)	> 100 µM (inactive)	> 100 µM (inactive)	> 100 µM (inactive)	> 100 µM (inactive)	> 100 µM (inactive)	> 100 µM (inactive)	> 100 µM (inactive)	> 100 µM (inactive)	> 100 µM (inactive)	> 100 µM (inactive)	> 100	> 100 µM (inactive)	> 100 µM (inactive)	> 100 µM (inactive)	> 100 µM (inactive)	61.7 µM (inactive)	> 100 µM (inactive)	> 100 µM (inactive)
COc1ccc(OCc2nc3cc(C(F)(F)F)ccc3nc2-c2ccccc2)cc1	> 100 µM (inactive)	> 100 µM (inactive)	> 100 µM (inactive)	> 100 µM (inactive)	> 100 µM (inactive)	> 100 µM (inactive)	> 100 µM (inactive)	> 100 µM (inactive)	> 100 µM (inactive)	> 100 µM (inactive)	> 100 µM (inactive)	> 100	> 100 µM (inactive)	> 100 µM (inactive)	> 100 µM (inactive)	> 100 µM (inactive)	> 100 µM (inactive)	> 100 µM (inactive)	> 100 µM (inactive)
O=C(O)c1ccc2c(c1)CC1(C2)Cc2cc3c(cc2C1=O)CCC3 (configuration not stated)	> 100 µM (inactive)	46.8 µM (inactive)	93.8 µM (inactive)	93.3 µM (inactive)	> 100 µM (inactive)	> 100 µM (inactive)	73.5 µM (inactive)	97.9 µM (inactive)	> 100 µM (inactive)	> 100 µM (inactive)	> 100 µM (inactive)	79.6	> 100 µM (inactive)	> 100 µM (inactive)	> 100 µM (inactive)	> 100 µM (inactive)	> 100 µM (inactive)	> 100 µM (inactive)	> 100 µM (inactive)
CC(=O)Nc1cc(C(=O)Nc2cc(C(=O)N3CC(CCl)c4c3cc(N)c3ccccc43)nn2C)nn1C (configuration not stated)	0.188 µM (active)	< 0.0132 µM (active)	0.0178 µM (active)	0.287 µM (active)	0.0117 µM (active)	0.185 µM (active)	0.0115 µM (active)	0.0209 µM (active)	0.115 µM (active)	0.0893 µM (active)	0.0187 µM (active)	0.571	0.216 µM (active)	0.138 µM (active)	0.0362 µM (active)	< 0.01 µM (active)	< 0.0112 µM (active)	0.541 µM (active)	0.0731 µM (active)
CO[C@H]1[C@@H](O)[C@@H](C)O[C@@H](O[C@H]2CC[C@@]3(C)[C@H](CC[C@@H]4[C@@H]3CC[C@]3(C)[C@@H](C5=CC(=O)OC5)[C@@H](OC(C)=O)C[C@]43O)C2)[C@@H]1O [NERITALOSIDE]	0.157 µM (active)	0.024 µM (active)	0.0405 µM (active)	0.0461 µM (active)	0.0708 µM (active)	0.0331 µM (active)	0.0164 µM (active)	0.0723 µM (active)	0.23 µM (active)	0.0176 µM (active)	0.0219 µM (active)	0.0973	0.0461 µM (active)	0.124 µM (active)	0.0807 µM (active)	0.0176 µM (active)	0.0211 µM (active)	0.0486 µM (active)	0.129 µM (active)
CCOC(=O)NC(Nc1ccc(F)cc1F)(C(F)(F)F)C(F)(F)F	> 100 µM (inactive)	> 100 µM (inactive)	> 100 µM (inactive)	> 100 µM (inactive)	> 100 µM (inactive)	> 100 µM (inactive)	> 100 µM (inactive)	> 100 µM (inactive)	> 100 µM (inactive)	> 100 µM (inactive)	> 100 µM (inactive)	> 100	> 100 µM (inactive)	> 100 µM (inactive)	> 100 µM (inactive)	> 100 µM (inactive)	> 100 µM (inactive)	> 100 µM (inactive)	> 100 µM (inactive)
